Data from ChEMBL document CHEMBL3272323, “1-Halobenzyl-1H-indazole-3-carboxylic acids. A new class of antispermatogenic agents” (1976).
The source made the active and inactive calls. The rule behind the calls is not given here.

Experiments:
Rattus norvegicus [1] = assay: Antispermatogenic activity in Long-Evans rat assessed as reduction of testes weight at a dose equimolecular to 400 mg/kg of 1-(4-chlorobenzyl)-1H-indazole-3-carboxylic acid administered orally as single dose measured after 5 days; assay type: functional, organism-based; design: dose 400 mg/kg; details: Testis
Rattus norvegicus [2] = assay: Antispermatogenic activity in po dosed Long-Evans rat assessed as reduction of testes weight administered as single dose measured after 5 days; assay type: functional; details: Testis, 120 h, read-out: MED

Row | Structure (SMILES) | Activity (Rattus norvegicus [1]) | minimal effective dose (Rattus norvegicus [2]) [mg/kg]
1 | CS(=O)(=O)c1ccc(Cn2nc(C(=O)O)c3ccccc32)cc1 | inactive | –
2 | Nc1nn(Cc2ccc(Cl)cc2)c2ccccc12 | inactive | –
3 | Cc1ccccc1Cn1nc(C(=O)O)c2ccccc21 | – | 186
4 | O=C(O)c1nn(Cc2ccccc2Cl)c2ccccc12 | – | 200
5 | O=C(O)c1nn(-c2ccc(Cl)cc2)c2ccccc12 | inactive | –
6 | O=C(O)c1nn(Cc2ccc(Cl)cc2Cl)c2ccccc12 [LONIDAMINE] | – | 56
7 | N#Cc1nn(Cc2ccc(Cl)cc2)c2ccccc12 | inactive | –
8 | OCc1nn(Cc2ccc(Cl)cc2)c2ccccc12 | inactive | –
9 | N#Cc1ccc(Cn2nc(C(=O)O)c3ccccc32)cc1 | inactive | –
10 | CC(=O)c1nn(Cc2ccc(Cl)cc2)c2ccccc12 | inactive | –
11 | O=C(OCC(O)CO)c1nn(Cc2ccc(Cl)cc2Cl)c2ccccc12 (stereo not drawn) | – | 69
12 | O=C(O)c1nn(Cc2ccc(Cl)cc2)c2ccc(O)cc12 | inactive | –
13 | Cc1cc(Cl)ccc1Cn1nc(C(=O)O)c2ccccc21 [TOLNIDAMINE] | – | 52
14 | O=C(O)c1nn(Cc2ccc(Cl)c3ccccc23)c2ccccc12 | inactive | –
15 | O=C(Cn1nc(C(=O)O)c2ccccc21)c1ccc(Cl)cc1 | inactive | –
16 | O=C(O)Cc1nn(Cc2ccc(Cl)cc2)c2ccccc12 | – | 419
17 | O=C(O)c1nn(Cc2ccc(I)cc2)c2ccccc12 | – | 528
18 | O=C(OCC(O)CO)c1nn(Cc2ccccc2Cl)c2ccccc12 (stereo not drawn) | – | 503
19 | O=C(O)c1nn(Cc2ccc(Cl)cc2)c2ccc(Cl)cc12 | inactive | –
20 | O=C(OC(CO)CO)c1nn(Cc2ccc(Cl)cc2)c2ccccc12 | – | 503

Row | Structure (SMILES) | Activity (Rattus norvegicus [1]) | minimal effective dose (Rattus norvegicus [2]) [mg/kg]
21 | O=C(O)c1nn(Cc2cccc(C(F)(F)F)c2)c2ccccc12 | inactive | –
22 | O=C(c1ccccc1)c1cccc(Cn2nc(C(=O)O)c3ccccc32)c1 | inactive | –
23 | Sc1nn(Cc2cccc(Cl)c2)c2ccccc12 | inactive | –
24 | O=C(O)CCc1nn(Cc2ccc(Cl)cc2)c2ccccc12 | inactive | –
25 | O=C(O)c1nn(Cc2cccc(Cl)c2)c2ccccc12 | – | 400
26 | Clc1ccc(Cn2nc(-c3nnn[nH]3)c3ccccc32)cc1 | inactive | –
27 | Cc1nn(Cc2ccc(Cl)cc2)c2ccccc12 | inactive | –
28 | O=C(OCCO)c1nn(Cc2ccc(Cl)cc2)c2ccccc12 | – | 486
29 | O=C(O)c1ccccc1NCc1ccc(Cl)cc1 | inactive | –
30 | O=C(O)c1nn(Cc2ccc(Br)cc2Br)c2ccccc12 | – | 76.5
31 | O=C(O)c1cc2ccccc2n1Cc1ccc(Cl)cc1 | inactive | –
32 | O=C(O)c1nn(Cc2cc(Cl)c(Cl)cc2Cl)c2ccccc12 | – | 248
33 | Clc1ccc(Cn2ncc3ccccc32)cc1 | inactive | –
34 | Cc1cccc(Cn2nc(C(=O)O)c3ccccc32)c1 | inactive | –
35 | Clc1ccc(CCn2nc(-c3nnn[nH]3)c3ccccc32)cc1 | inactive | –
36 | O=C(O)c1cn(Cc2ccc(Cl)cc2)c2ccccc12 | inactive | –
37 | NC(=O)c1nn(Cc2ccc(Cl)cc2)c2ccccc12 | – | 399
38 | O=C(O)c1nn(C(=O)c2ccc(Cl)cc2)c2ccccc12 | inactive | –
39 | Cc1ccc(Cn2nc(C(=O)O)c3ccccc32)cc1 | inactive | –
40 | Cc1ccc(Cn2nc(C(=O)O)c3ccccc32)c(C)c1 [XINIDAMINE] | – | 101

Row | Structure (SMILES) | Activity (Rattus norvegicus [1]) | minimal effective dose (Rattus norvegicus [2]) [mg/kg]
41 | O=C(O)c1nn(Cc2ccc(Br)cc2)c2ccccc12 | – | 231
42 | COc1ccc2c(c1)c(C(=O)O)nn2Cc1ccc(Cl)cc1 | inactive | –
43 | O=C(O)c1nn(Cc2ccc(F)cc2)c2ccccc12 | – | 377
44 | Cc1ccc2c(c1)c(C(=O)O)nn2Cc1ccc(Cl)cc1 | inactive | –
45 | O=C(OCC(O)CO)c1nn(Cc2ccc(Cl)cc2)c2ccccc12 (stereo not drawn) | – | 503
46 | O=C(O)c1nn(Cc2ccc(S(=O)(=O)c3ccccc3)cc2)c2ccccc12 | inactive | –
47 | O=C(O)c1nn(Cc2ccc(Cl)cc2)c2ccccc12 | – | 400
48 | CCOC(=O)c1nn(Cc2ccc(Cl)cc2)c2ccccc12 | inactive | –
49 | COC(=O)c1nn(Cc2ccc(Cl)cc2)c2ccccc12 | inactive | –
50 | O=C(OCC(O)CO)c1nn(Cc2cc(Cl)c(Cl)cc2Cl)c2ccccc12 (stereo not drawn) | – | 300
51 | O=C(O)c1nn(Cc2ccc(Cl)c(Cl)c2)c2ccccc12 | – | 448
52 | O=C(O)c1nn(S(=O)(=O)c2ccc(Cl)cc2)c2ccccc12 | inactive | –
53 | Cc1cc(Cl)ccc1Cn1nc(-c2nnn[nH]2)c2ccccc21 | inactive | –
54 | O=C(O)c1ccccc1NCc1cccc2ccccc12 | inactive | –
55 | Cc1c(C(=O)O)c2ccccc2n1Cc1ccc(Cl)cc1 | inactive | –
56 | O=C(NCCCCCCCCNC(=O)C(Cl)Cl)C(Cl)Cl | inactive | –
57 | O=C(O)c1nn(Cc2c(Cl)cccc2Cl)c2ccccc12 | inactive | –
58 | Clc1ccc(Cn2nc(-c3nnn[nH]3)c3ccccc32)c(Cl)c1 | inactive | –
